Measurements as given in ChEMBL document CHEMBL1240458, “Probing the binding site of curcumin in Escherichia coli and Bacillus subtilis FtsZ--a structural insight to unveil antibacterial activity of curcumin” (Eur J Med Chem, 2010).
Values after ≈ are worked out from the molar mass of the structure shown. Active and inactive are the calls of the source. The calls are words filed in the database; no cut-off is given here.

Tests used:
[1] = biological target: T1, Cell division protein FtsZ (Bacillus subtilis (strain 168), UniProt P17865); experiment: Inhibition of Bacillus subtilis FtsZ polymerization
T1 sequence (P17865 whole entry): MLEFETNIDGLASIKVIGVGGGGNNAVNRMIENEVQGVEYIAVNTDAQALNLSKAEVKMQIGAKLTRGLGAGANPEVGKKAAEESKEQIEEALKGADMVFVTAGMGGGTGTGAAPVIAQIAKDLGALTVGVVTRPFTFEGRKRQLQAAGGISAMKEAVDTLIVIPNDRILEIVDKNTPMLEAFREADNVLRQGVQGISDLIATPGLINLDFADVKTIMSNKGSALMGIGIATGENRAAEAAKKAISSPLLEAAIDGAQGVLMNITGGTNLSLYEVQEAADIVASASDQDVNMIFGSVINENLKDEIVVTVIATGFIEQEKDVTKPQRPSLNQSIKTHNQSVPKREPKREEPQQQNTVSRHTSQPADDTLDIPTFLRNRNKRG

Escherichia coli = experiment: Inhibition of Escherichia coli FtsZ polymerization
[2] = Inhibition of FtsZ GTPase
[3] = Inhibition of FtsZ polymerization

SMILES	IC50 [1] [µM]	inhibition (Escherichia coli)	IC50 [2] [µg/mL]	IC50 [3] [µg/mL]
COc1cc(/C=C/C(=O)CC(=O)/C=C/c2ccc(O)c(OC)c2)ccc1O [CURCUMIN]	30	Active	–	–
COC(=O)CC1Cc2cc3cc(OC)c(-c4c(OC)cc5cc6c(c(O)c5c4O)C(=O)OC(CC(=O)OC)C6)c(O)c3c(O)c2C(=O)O1 (centres undefined) [VIRIDITOXIN]	–	–	7 (≈ 10.6 µM)	8.2 (≈ 12.4 µM)
